For this assay, the system named is BDF1 mice, Adenocarcinoma 755 s.c., tumor weight T/C. Kind of assay: NCI In Vivo Anticancer Drug Screen. Data for tumor model Adenocarcinoma 755 (subcutaneous) in B6D2F1 (BDF1) mice. The note with it: endpoint: mean tumor weight, higher = larger tumour. An outline of the steps: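 In vivo antitumor screen on a transplantable tumor line. Result equals the measure in compound-treated animals divided by the same measure in vehicle controls.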

The mark [1] stands for this setting: dose: 20.0 mg/kg/injection, schedule: Q01DX011 (ip), vehicle: carboxymethylcellulose (CMC).
Setting [2] is: dose: 40.0 mg/kg/injection, schedule: Q01DX011 (ip), vehicle: carboxymethylcellulose (CMC).
Where [3] appears, read: dose: 30.0 mg/kg/injection, schedule: Q01DX011 (ip), vehicle: carboxymethylcellulose (CMC).
Where [4] appears, read: dose: 60.0 mg/kg/injection, schedule: Q01DX011 (ip), vehicle: carboxymethylcellulose (CMC).
Where [5] appears, read: dose: 120.0 mg/kg/injection, schedule: Q01DX011 (ip), vehicle: carboxymethylcellulose (CMC).
Where [6] appears, read: dose: 15.0 mg/kg/injection, schedule: Q01DX011 (ip), vehicle: methylcellulose (MC).
The mark [7] stands for this setting: dose: 31.0 mg/kg/injection, schedule: Q01DX011 (ip), vehicle: methylcellulose (MC).

“And” between values parts separate entries of the source, which are not always exact repeats. Equal values may be shown once.

What is called T/C is the ratio of treated to control.

For the compound `CC1CCOS(=O)O1` (centres undefined), the T/C by setting is: under setting [1], 76 % of control; under setting [2], 18 % of control.
Regarding `CC(=O)OCC1OC(n2c(Br)nc3c(N)ncnc32)C(OC(C)=O)C1OC(C)=O` (centres undefined), the T/C is, setting by setting: under setting [3], 88 % of control; under setting [4], 88 % of control; under setting [5], 104 % of control; (dose: 240.0 mg/kg/injection, schedule: Q01DX011 (ip), vehicle: carboxymethylcellulose (CMC)) 113 % of control.
Regarding `NC(=O)NOC(=O)c1ccccc1`, the T/C by setting is: (dose: 50.0 mg/kg/injection, schedule: Q01DX011 (ip), vehicle: other) 57 % of control; (dose: 50.0 mg/kg/injection, schedule: Q01DX011 (ip), vehicle: saline) 86 % of control; (dose: 100.0 mg/kg/injection, schedule: Q01DX011 (ip), vehicle: other) 28 % of control; (dose: 100.0 mg/kg/injection, schedule: Q01DX011 (ip), vehicle: saline) 75 % of control; (dose: 200.0 mg/kg/injection, schedule: Q01DX011 (ip), vehicle: other) 21 % of control; (dose: 200.0 mg/kg/injection, schedule: Q01DX011 (ip), vehicle: saline) 94 % of control. In addition, the T/C (dose: 400.0 mg/kg/injection, schedule: Q01DX011 (ip), vehicle: saline) is 92 % of control.
On to `[I][Hg][CH2]C1COCC([CH2][Hg][I])O1.[I][Hg][CH2]C1COCC([CH2][Hg][I])O1` (centres undefined), for which the T/C was 59 % of control (dose: 10.0 mg/kg/injection, schedule: Q01DX011 (ip), vehicle: other); 63 % of control (dose: 20.0 mg/kg/injection, schedule: Q01DX011 (ip), vehicle: other); 31 % of control (dose: 40.0 mg/kg/injection, schedule: Q01DX011 (ip), vehicle: other).
Consider `CSc1ncc(Br)c(Nc2ccc(Cl)c(Cl)c2)n1`, for which the T/C is 57 % of control under setting [6]; 66 % of control under setting [7]; 78 % of control (dose: 62.0 mg/kg/injection, schedule: Q01DX011 (ip), vehicle: methylcellulose (MC)); 67 % of control (dose: 125.0 mg/kg/injection, schedule: Q01DX011 (ip), vehicle: methylcellulose (MC)); 62 % of control (dose: 250.0 mg/kg/injection, schedule: Q01DX011 (ip), vehicle: methylcellulose (MC)).
Regarding `O=C(OCC1OC(n2cnc3c(=O)[nH]cnc32)CC1OC(=O)c1ccccc1)c1ccccc1` (centres undefined), the T/C under setting [4] was 101 % of control and the T/C under setting [5] is 90 % of control.
For `O=C(Nc1ccc(C2=NCCS2)cc1)c1ccc(C(=O)Nc2ccc(C3=NCCS3)cc2)cc1`, the T/C reads like this: (dose: 30.0 mg/kg/injection, schedule: Q01DX011 (ip), vehicle: methylcellulose (MC)) 118 % of control; (dose: 120.0 mg/kg/injection, schedule: Q01DX011 (ip), vehicle: methylcellulose (MC)) 121 % of control.
Take `CCc1c(Cl)nc(N)nc1Nc1ccc(Cl)c(Cl)c1`: the T/C was 117 % of control under setting [6] and 123 % of control under setting [7].
`CN(C)c1ccc(/C=C\c2ccnc3ccccc23)cc1`: the T/C by setting is: (dose: 3.1 mg/kg/injection, schedule: Q01DX011 (ip), vehicle: water) 100 % of control; (dose: 5.0 mg/kg/injection, schedule: Q01DX011 (ip), vehicle: methylcellulose (MC)) 96 % of control; (dose: 6.25 mg/kg/injection, schedule: Q01DX011 (ip), vehicle: water) 97 % of control; (dose: 10.0 mg/kg/injection, schedule: Q01DX011 (ip), vehicle: methylcellulose (MC)) 96 % of control; (dose: 12.5 mg/kg/injection, schedule: Q01DX011 (ip), vehicle: water) 90 % of control; (dose: 20.0 mg/kg/injection, schedule: Q01DX011 (ip), vehicle: methylcellulose (MC)) 86 % of control. The T/C was 81 % of control (dose: 25.0 mg/kg/injection, schedule: Q01DX011 (ip), vehicle: water); 55 % of control (dose: 50.0 mg/kg/injection, schedule: Q01DX011 (ip), vehicle: water); 64 % of control (dose: 100.0 mg/kg/injection, schedule: Q01DX011 (ip), vehicle: water).
As for `Cc1nnc2ncnc(N)c2n1`, the T/C under setting [3] was 46 % of control.
Regarding `CCCCn1cnc2c(=S)nc[nH]c21`, the T/C is, setting by setting: (dose: 2.5 mg/kg/injection, schedule: Q01DX011 (ip), vehicle: carboxymethylcellulose (CMC)) 62 % of control; (dose: 5.0 mg/kg/injection, schedule: Q01DX011 (ip), vehicle: carboxymethylcellulose (CMC)) 25 % of control; (dose: 5.0 mg/kg/injection, schedule: Q01DX011 (ip), vehicle: olive oil, sesame oil, peanut oil) 41 % of control; (dose: 5.0 mg/kg/injection, schedule: Q#A X022 (ip), vehicle: carboxymethylcellulose (CMC)) 4 % of control; (dose: 8.0 mg/kg/injection, schedule: Q01DX011 (ip), vehicle: carboxymethylcellulose (CMC)) 32 % of control; (dose: 10.0 mg/kg/injection, schedule: Q01DX006 (iv), vehicle: carboxymethylcellulose (CMC)) 20 % of control. Further, the T/C runs as follows: (dose: 10.0 mg/kg/injection, schedule: Q01DX011 (im), vehicle: carboxymethylcellulose (CMC)) 5 % of control; (dose: 10.0 mg/kg/injection, schedule: Q01DX011 (ip), vehicle: carboxymethylcellulose (CMC)) 2 % of control; (dose: 10.0 mg/kg/injection, schedule: Q01DX011 (ip), vehicle: olive oil, sesame oil, peanut oil) 14 % of control; (dose: 10.0 mg/kg/injection, schedule: Q#A X022 (ip), vehicle: carboxymethylcellulose (CMC)) 1 % of control; (dose: 16.0 mg/kg/injection, schedule: Q01DX011 (ip), vehicle: carboxymethylcellulose (CMC)) 8 % of control; (dose: 20.0 mg/kg/injection, schedule: Q01DX006 (iv), vehicle: carboxymethylcellulose (CMC)) 6 % of control. Besides, the T/C reads like this: (dose: 20.0 mg/kg/injection, schedule: Q01DX011 (im), vehicle: carboxymethylcellulose (CMC)) 2 % of control; under setting [1], 1 % of control; (dose: 20.0 mg/kg/injection, schedule: Q#A X022 (ip), vehicle: carboxymethylcellulose (CMC)) 2 % of control; (dose: 25.0 mg/kg/injection, schedule: Q01DX011 (ip), vehicle: carboxymethylcellulose (CMC)) 6 % of control; (dose: 27.0 mg/kg/injection, schedule: Q01DX001 (ip), vehicle: carboxymethylcellulose (CMC)) 73 % of control; (dose: 32.0 mg/kg/injection, schedule: Q01DX011 (ip), vehicle: carboxymethylcellulose (CMC)) 3 % of control. Moreover, the T/C runs as follows: (dose: 40.0 mg/kg/injection, schedule: Q01DX006 (iv), vehicle: carboxymethylcellulose (CMC)) 1 % of control; (dose: 40.0 mg/kg/injection, schedule: Q01DX011 (im), vehicle: carboxymethylcellulose (CMC)) 2 % of control; (dose: 40.0 mg/kg/injection, schedule: Q#A X022 (ip), vehicle: carboxymethylcellulose (CMC)) 1 % of control; (dose: 54.0 mg/kg/injection, schedule: Q01DX001 (ip), vehicle: carboxymethylcellulose (CMC)) 59 % of control; (dose: 64.0 mg/kg/injection, schedule: Q01DX011 (ip), vehicle: carboxymethylcellulose (CMC)) 3 % of control; (dose: 75.0 mg/kg/injection, schedule: Q01DX011 (ip), vehicle: carboxymethylcellulose (CMC)) 4 % of control. Further, the T/C (dose: 107.0 mg/kg/injection, schedule: Q01DX001 (ip), vehicle: carboxymethylcellulose (CMC)) is 8 % of control and the T/C (dose: 214.0 mg/kg/injection, schedule: Q01DX001 (ip), vehicle: carboxymethylcellulose (CMC)) was 5 % of control.
In the case of `Nc1nc2ncc(CNc3ccc(C(=O)NC(CCC(=O)O)C(=O)O)cc3)nc2c(=O)[nH]1` (centres undefined), the T/C is, setting by setting: (dose: 6.95 mg/kg/injection, schedule: Q01DX011 (ip), vehicle: carboxymethylcellulose (CMC)) 78 % of control; (dose: 13.9 mg/kg/injection, schedule: Q01DX011 (ip), vehicle: carboxymethylcellulose (CMC)) 77 % of control; (dose: 17.38 mg/kg/injection, schedule: Q01DX011 (ip), vehicle: carboxymethylcellulose (CMC)) 221 % of control and 79 % of control; (dose: 22.24 mg/kg/injection, schedule: Q01DX011 (ip), vehicle: carboxymethylcellulose (CMC)) 63 % of control; (dose: 27.8 mg/kg/injection, schedule: Q01DX011 (ip), vehicle: carboxymethylcellulose (CMC)) 52 % of control and 60 % of control and 75 % of control; (dose: 34.75 mg/kg/injection, schedule: Q01DX011 (ip), vehicle: carboxymethylcellulose (CMC)) 65 % of control. For the same compound, the T/C by setting is: under setting [2], 70 % of control; (dose: 50.0 mg/kg/injection, schedule: Q01DX011 (ip), vehicle: carboxymethylcellulose (CMC)) 50 % of control; (dose: 55.6 mg/kg/injection, schedule: Q01DX011 (ip), vehicle: carboxymethylcellulose (CMC)) 33 % of control and 55 % of control; under setting [4], 27 % of control; (dose: 65.0 mg/kg/injection, schedule: Q01DX011 (ip), vehicle: carboxymethylcellulose (CMC)) 68 % of control.

Values taken from PubChem BioAssay AID180 (DTP/NCI, 2004).
